US20230285310A1, “COMPOSITIONS FOR THE DELIVERY OF PAYLOAD MOLECULES TO AIRWAY EPITHELIUM” (ModernaTX, Inc., priority 2020, published 2023)
Counter-ions that a name gives are not always drawn.

What follows are compounds tested on HeLa cells (assay: Protein expression assay in HeLa cells (One-Glo luciferase, NPI-Luc mRNA)). Conditions: 5 h, no serum, 4 wells, sterol amine post-added to LNP core Compound 18, DSPC, Cholesterol plus DMG-PEG 2K (SA3, SA11, SA24, SA26, SA39, SA32), plus Compound 428 (SA4, SA6, SA10, SA16), or plus β-sitosterol and DMG-PEG 2K (SA23, SA29, SA30, SA31).
Assay type: cell-based, human
Method: To evaluate protein expression In Vitro, HeLa cells from ATCC.org (ATCC CCL-2) are used. The cells are cultured in complete Minimum Essential Medium (MEM) and are plated in 96 well Cell Carrier Ultra plate with PDL coated surface (PerkinElmer) prior to running an experiment.
LNPs encapsulating NPI-Luc mRNA were dosed with MEM media in the absence of serum. LNP transfected cell were incubated for 5 h post LNP transfection, the cells were imaged live using Opera Phoenix spinning disk confocal microscope (PerkinElmer). Cells were detected using DAPI (405 nm channel), and image analysis was performed in Harmony 4.9, to quantify the number of cells. After imaging the cells were processed with One-Glo Luciferase assay (Promega) to quantify protein expression. Results were reported in relative luminescence units (RLU) normalized to cells counts.
LNPs were prepared according to Example 2 using NPI-Luc as the mRNA construct. NPI-Luc is a dual read reporter made by adding a 5xV5 tag and a C-myc nuclear localization sequence at the N-terminus of Firefly Luciferase to enhance the signal to noise ratio. Protein expression can be detected using OneGLo assays with luminescence readout or by immunofluorescence with anti-V5 antibodies. Protein expression was evaluated according to the procedure outlined in Example 7. The LNPs are dosed in 4 wells and the average response was reported. For the HeLa assay the luminescence read (RLU) were normalized to cell counts.

Point of comparison: `CC(C)CCC[C@@H](C)[C@H]1CC[C@H]2[C@@H]3CC=C4C[C@@H](OC(=O)CCC(=O)N(CCCN(C)C)CCCN(C)C)CC[C@]4(C)[C@H]3CC[C@]12C` [SA24, (3S,8S,9S,10R,13R,14S,17R)-10,13-Dimethyl-17-((R)-6-methylheptan-2-yl)-2,3,4,7,8,9,10,11,12,13,14,15,16,17-tetradecahydro-1H-cyclopenta[a]phenanthren-3-yl 4-(bis(3-(dimethylamino)propyl)amino)-4-oxobutanoate dihydrochloride], “Average protein expression per cell (RLU per cell)” value 457.2 RLU per cell. Against it:
- CC(C)CCC[C@@H](C)[C@H]1CC[C@H]2[C@@H]3CC=C4C[C@@H](OC(=O)NCCN(C)CCO)CC[C@]4(C)[C@H]3CC[C@]12C [SA6, (3S,8S,9S,10R,13R,14S,17R)-10,13-dimethyl-17-((R)-6-methylheptan-2-yl)-2,3,4,7,8,9,10,11,12,13,14,15,16,17-tetradecahydro-1H-cyclopenta[a]phenanthren-3-yl (2-((2-hydroxyethyl)(methyl)amino)ethyl)carbamate] — lower, 196.2 RLU per cell
- CC[C@H](CC[C@@H](C)[C@H]1CC[C@H]2[C@@H]3CC=C4C[C@@H](OC(=O)NCCN(C)C)CC[C@]4(C)[C@H]3CC[C@]12C)C(C)C [SA10, (3S,8S,9S,10R,13R,14S,17R)-17-((2R,5R)-5-Ethyl-6-methylheptan-2-yl)-10,13-dimethyl-2,3,4,7,8,9,10,11,12,13,14,15,16,17-tetradecahydro-1H-cyclopenta[a]phenanthren-3-yl (2-(dimethylamino)ethyl)carbamate] — lower, 236.6 RLU per cell
- CC(C)CCC[C@@H](C)[C@H]1CC[C@H]2[C@@H]3CC=C4C[C@@H](OC(=O)CCc5cnc[nH]5)CC[C@]4(C)[C@H]3CC[C@]12C [SA11, (3S,8S,9S,10R,13R,14S,17R)-10,13-dimethyl-17-((R)-6-methylheptan-2-yl)-2,3,4,7,8,9,10,11,12,13,14,15,16,17-tetradecahydro-1H-cyclopenta[a]phenanthren-3-yl 3-(1H-imidazol-5-yl)propanoate, hydrochloride salt] — lower, 5.3 RLU per cell
- CC(C)CCC[C@@H](C)[C@H]1CC[C@H]2[C@@H]3CC=C4C[C@@H](OC(=O)NCCNc5c(NCCCN(C)C)c(=O)c5=O)CC[C@]4(C)[C@H]3CC[C@]12C [SA26, (3S,8S,9S,10R,13R,14S,17R)-10,13-dimethyl-17-((R)-6-methylheptan-2-yl)-2,3,4,7,8,9,10,11,12,13,14,15,16,17-tetradecahydro-1H-cyclopenta[a]phenanthren-3-yl (2-((2-((3-(dimethylamino)propyl)amino)-3,4-dioxocyclobut-1-en-1-yl)amino)ethyl)carbamate, hydrochloride salt] — lower, 84.3 RLU per cell
- CC(C)CCC[C@@H](C)[C@H]1CC[C@H]2[C@@H]3CC=C4C[C@@H](OC(=O)N(CCCN)CCCCN)CC[C@]4(C)[C@H]3CC[C@]12C [SA29, (3S,8S,9S,10R,13R,14S,17R)-10,13-Dimethyl-17-((R)-6-methylheptan-2-yl)-2,3,4,7,8,9,10,11,12,13,14,15,16,17-tetradecahydro-1H-cyclopenta[a]phenanthren-3-yl (4-aminobutyl)(3-aminopropyl)carbamate dihydrochloride] — higher, 550.3 RLU per cell
- CC(C)CCC[C@@H](C)[C@H]1CC[C@H]2[C@@H]3CC=C4C[C@@H](OC(=O)NCCCNCCCCN)CC[C@]4(C)[C@H]3CC[C@]12C [SA30, (3S,8S,9S,10R,13R,14S,17R)-10,13-Dimethyl-17-((R)-6-methylheptan-2-yl)-2,3,4,7,8,9,10,11,12,13,14,15,16,17-tetradecahydro-1H-cyclopenta[a]phenanthren-3-yl (3-((4-aminobutyl)amino)propyl)carbamate dihydrochloride] — higher, 648.3 RLU per cell
